Source: PubChem BioAssay (NCI)
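Five concentrations, 48 hours, 96-well plates. The concentration for 50% growth inhibition is given as GI50. The concentration for full growth arrest is given as TGI.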

Columns and labels:
Assay in all cases: growth of human tumour cells (NCI), 48 h
[1] = system: HT29 colon
[2] = system: CCRF-CEM leukemia
[3] = system: HOP-62 NSCLC
[4] = system: UACC-257 melanoma
[5] = system: MOLT-4 leukemia
[6] = system: HCT-116 colon
[7] = system: IGROV1 ovarian
[8] = system: SK-MEL-28 melanoma
[9] = system: NCI-H460 lung
[10] = system: SW-620 colon
[11] = system: SNB-19 CNS
[12] = system: U251 CNS
[13] = system: NCI-H226 lung
[14] = system: ACHN renal
[15] = system: OVCAR-5 ovarian
[16] = system: HS 578T breast
[17] = system: CAKI-1 renal
[18] = system: A549 NSCLC
[19] = system: OVCAR-8 ovarian
[20] = system: PC-3 prostate
[21] = system: M14 melanoma
[22] = system: MCF7 breast
[23] = system: NCI-H522 lung
[24] = system: SK-MEL-5 melanoma
[25] = system: MDA-MB-231 breast
[26] = system: UO-31 renal
[27] = system: MDA-MB-435
[28] = system: HL-60(TB) leukemia
[29] = system: SF-539 CNS
[30] = system: A498 renal
[31] = system: SF-295 CNS
[32] = system: HCC-2998 colon
[33] = system: SF-268 CNS
[34] = system: T-47D breast
[35] = system: SK-OV-3 ovarian
[36] = system: COLO 205 colon
[37] = system: BT-549 breast
[38] = system: LOX IMVI melanoma
[39] = system: HOP-92 NSCLC
[40] = system: HCT-15 colon
[41] = system: SN12C renal
[42] = system: DU-145 prostate
[43] = system: UACC-62 melanoma
[44] = system: KM12 colon
[45] = system: NCI-H23 lung
[46] = system: NCI/ADR-RES ovarian
[47] = system: SK-MEL-2 melanoma
[48] = system: K-562 leukemia
[49] = system: RXF 393 renal
[50] = system: OVCAR-3 ovarian
[51] = system: RPMI-8226 leukemia
[52] = system: EKVX NSCLC
[53] = system: OVCAR-4 ovarian
[54] = system: SNB-75 CNS
[55] = system: TK-10 renal
[56] = system: 786-0 renal

COc1ccccc1NC(=O)c1ccc(NC2=C(Cl)C(=O)N(Cc3ccccc3)C2=O)cc1
GI50 [1]: 36.8 µM | TGI [1]: > 100 µM | GI50 [2]: 0.0777 µM | TGI [2]: > 100 µM | GI50 [3]: 26.8 µM | TGI [3]: 63.5 µM | GI50 [4]: 0.228 µM | TGI [4]: 21.9 µM | GI50 [5]: 3.31 µM | TGI [5]: > 100 µM | GI50 [6]: 12.9 µM | TGI [6]: 36.2 µM | GI50 [7]: 1.36 µM | TGI [7]: 4.29 µM | GI50 [8]: 30.3 µM | TGI [8]: > 100 µM | GI50 [9]: 33.4 µM | TGI [9]: > 100 µM | GI50 [10]: 5.29 µM | TGI [10]: > 100 µM | GI50 [11]: 48.9 µM | TGI [11]: > 100 µM | GI50 [12]: 29.3 µM | TGI [12]: > 100 µM | GI50 [13]: 6.84 µM | TGI [13]: 32.9 µM | GI50 [14]: 33.4 µM | TGI [14]: > 100 µM | GI50 [15]: 44.1 µM | TGI [15]: > 100 µM | GI50 [16]: 37.5 µM | TGI [16]: > 100 µM | GI50 [17]: 1.48 µM | TGI [17]: 2.95 µM | GI50 [18]: 10.5 µM | TGI [18]: 90.4 µM | GI50 [19]: 2.27 µM | TGI [19]: 32.9 µM | GI50 [20]: 0.976 µM | TGI [20]: 5.75 µM | GI50 [21]: 17.6 µM | TGI [21]: 40.4 µM | GI50 [22]: 7.77 µM | TGI [22]: 54 µM | GI50 [23]: 5.09 µM | TGI [23]: 22.6 µM | GI50 [24]: 16 µM | TGI [24]: 45.3 µM | GI50 [25]: 2.82 µM | TGI [25]: 16.3 µM | GI50 [26]: 1.7 µM | TGI [26]: 3.2 µM | GI50 [27]: 11.2 µM | TGI [27]: 40.5 µM | GI50 [28]: 3.36 µM | TGI [28]: 43.5 µM | GI50 [29]: 16.6 µM | TGI [29]: 41.2 µM | GI50 [30]: 27.8 µM | TGI [30]: 86.3 µM | GI50 [31]: 18.2 µM | TGI [31]: 63.4 µM | GI50 [32]: 4.2 µM | TGI [32]: 15.4 µM | GI50 [33]: 25.4 µM | TGI [33]: > 100 µM | GI50 [34]: 41.2 µM | TGI [34]: > 100 µM | GI50 [35]: > 100 µM | TGI [35]: > 100 µM | GI50 [36]: 44.9 µM | TGI [36]: > 100 µM | GI50 [37]: 1.46 µM | TGI [37]: 11 µM | GI50 [38]: 10.3 µM | TGI [38]: 35 µM | GI50 [39]: 3.68 µM | TGI [39]: 45.4 µM | GI50 [40]: 14.7 µM | TGI [40]: 38.8 µM | GI50 [41]: 10.3 µM | TGI [41]: 39.5 µM | GI50 [42]: 2.01 µM | TGI [42]: 28 µM | GI50 [43]: 0.877 µM | TGI [43]: 24.5 µM | GI50 [44]: 26.6 µM | TGI [44]: 86 µM | GI50 [45]: 12 µM | TGI [45]: 25.9 µM | GI50 [46]: 15.2 µM | TGI [46]: 48.1 µM | GI50 [47]: 11.2 µM | TGI [47]: 29.9 µM | GI50 [48]: 4.21 µM | TGI [48]: > 100 µM | GI50 [49]: 19.9 µM | TGI [49]: 78.8 µM | GI50 [50]: 10.2 µM | TGI [50]: 22.6 µM | GI50 [51]: 0.0257 µM | TGI [51]: 0.363 µM | GI50 [52]: 29.1 µM | TGI [52]: > 100 µM | GI50 [53]: 29.3 µM | TGI [53]: > 100 µM | GI50 [54]: 37.7 µM | TGI [54]: > 100 µM | GI50 [55]: 40.3 µM | TGI [55]: 89.1 µM

O=C(NCCCCN(CCCNC(=O)C(F)(F)F)Cc1ccccc1)C(F)(F)F
TGI [1]: > 100 µM | TGI [2]: > 100 µM | TGI [3]: > 100 µM | TGI [4]: > 100 µM | TGI [5]: > 100 µM | TGI [6]: > 100 µM | TGI [7]: > 100 µM | TGI [8]: > 100 µM | TGI [9]: > 100 µM | TGI [10]: > 100 µM | TGI [11]: > 100 µM | TGI [12]: > 100 µM | TGI [13]: > 100 µM | TGI [14]: > 100 µM | TGI [15]: > 100 µM | TGI [16]: > 100 µM | TGI [56]: > 100 µM | TGI [18]: > 100 µM | TGI [19]: > 100 µM | TGI [20]: > 100 µM | TGI [21]: > 100 µM | TGI [22]: > 100 µM | TGI [23]: > 100 µM | TGI [24]: > 100 µM | TGI [25]: > 100 µM | TGI [26]: > 100 µM | TGI [27]: > 100 µM | TGI [28]: > 100 µM | TGI [29]: > 100 µM | TGI [30]: > 100 µM | TGI [31]: > 100 µM | TGI [32]: > 100 µM | TGI [33]: > 100 µM | TGI [34]: > 100 µM | TGI [35]: > 100 µM | TGI [36]: > 100 µM | TGI [37]: > 100 µM | TGI [39]: > 100 µM | TGI [40]: > 100 µM | TGI [41]: > 100 µM | TGI [42]: > 100 µM | TGI [43]: > 100 µM | TGI [44]: > 100 µM | TGI [45]: > 100 µM | TGI [46]: > 100 µM | TGI [47]: > 100 µM | TGI [48]: > 100 µM | TGI [49]: > 100 µM | TGI [50]: > 100 µM | TGI [51]: > 100 µM | TGI [52]: > 100 µM | TGI [53]: > 100 µM | TGI [54]: > 100 µM | TGI [55]: > 100 µM

N#Cc1cc2c(cc1Cl)SC(=Nc1ccccc1)N(S(=O)(=O)c1ccc(Cl)cc1)S2(=O)=O
GI50 [1]: 31 µM | TGI [1]: > 100 µM | GI50 [2]: 20.6 µM | TGI [2]: 39.1 µM | GI50 [3]: 13.5 µM | TGI [3]: 29.9 µM | GI50 [4]: 18.6 µM | TGI [4]: 40.4 µM | GI50 [5]: 28.7 µM | TGI [5]: > 100 µM | GI50 [6]: 3.78 µM | TGI [6]: 18 µM | GI50 [7]: 5.56 µM | TGI [7]: 21.2 µM | GI50 [8]: 17.1 µM | TGI [8]: 37.7 µM | GI50 [9]: 20.8 µM | TGI [9]: 53.5 µM | GI50 [10]: 17.4 µM | TGI [10]: 39.5 µM | GI50 [11]: 35.5 µM | TGI [11]: > 100 µM | GI50 [12]: 17.7 µM | TGI [12]: 36.6 µM | GI50 [13]: 17.7 µM | TGI [13]: 42.9 µM | GI50 [14]: 17.7 µM | TGI [14]: 33.2 µM | GI50 [15]: 16.8 µM | TGI [15]: 32.9 µM | GI50 [16]: 21.6 µM | TGI [16]: 57.8 µM | GI50 [17]: 12.3 µM | TGI [17]: 27.2 µM | GI50 [56]: 14.2 µM | TGI [56]: 28.6 µM | GI50 [18]: 20.3 µM | TGI [18]: 54.5 µM | GI50 [19]: 18 µM | TGI [19]: 51 µM | GI50 [20]: 17.5 µM | TGI [20]: 38.2 µM | GI50 [21]: 10 µM | TGI [21]: 24.8 µM | GI50 [22]: 14.8 µM | TGI [22]: 37.6 µM | GI50 [23]: 3.29 µM | TGI [23]: 17.3 µM | GI50 [24]: 13.4 µM | TGI [24]: 28.7 µM | GI50 [25]: 14.5 µM | TGI [25]: 34.5 µM | GI50 [26]: 9.84 µM | TGI [26]: 26.9 µM | GI50 [27]: 13 µM | TGI [27]: 27.8 µM | GI50 [28]: > 100 µM | TGI [28]: > 100 µM | GI50 [29]: 19.8 µM | TGI [29]: 39.8 µM | GI50 [30]: 16.4 µM | TGI [30]: 32.8 µM | GI50 [31]: 22.5 µM | TGI [31]: 72.7 µM | GI50 [32]: 17.8 µM | TGI [32]: 33 µM | GI50 [33]: 16.9 µM | TGI [33]: 41.6 µM | GI50 [34]: 19.9 µM | TGI [34]: 64.1 µM | GI50 [35]: 20 µM | TGI [35]: 40.8 µM | GI50 [36]: 32 µM | TGI [36]: > 100 µM | GI50 [37]: 13.4 µM | TGI [37]: 30.4 µM | GI50 [38]: 10.8 µM | TGI [38]: 28.8 µM | GI50 [40]: 15.2 µM | TGI [40]: 33.6 µM | GI50 [41]: 17.2 µM | TGI [41]: 37.1 µM | GI50 [42]: 16.6 µM | TGI [42]: 35.7 µM | GI50 [43]: 14.7 µM | TGI [43]: 29 µM | GI50 [44]: 14 µM | TGI [44]: 28.1 µM | GI50 [46]: 18 µM | TGI [46]: 44.6 µM | GI50 [47]: 3.61 µM | TGI [47]: 16.8 µM | GI50 [48]: 50.5 µM | TGI [48]: > 100 µM | GI50 [49]: 5.68 µM | TGI [49]: 30.1 µM | GI50 [50]: 4.95 µM | TGI [50]: 17.9 µM | GI50 [51]: 10.6 µM | TGI [51]: 51.7 µM | GI50 [52]: 16.9 µM | TGI [52]: 34.4 µM | GI50 [53]: 19 µM | TGI [53]: 42.2 µM | GI50 [54]: 18.9 µM | TGI [54]: 42.2 µM | GI50 [55]: 0.656 µM | TGI [55]: 3.64 µM
